Laboratory results from patent US20250154226A1, “LONG-ACTING GLP-1/GLP-2 DUAL AGONIST COMPOUND” (CHENGDU AODA BIOTECHNOLOGY CO., LTD, priority 2022, published 2025).
Starred links: 1 amine or outer side, 2 acyl side, 3 side chain; linkers in the order of their positions; H or OH if unused. Non-standard residues stand in square brackets, D forms with d. Residues, ends and D or L forms follow the SMILES beside them. Groups on a side chain read outwards from the residue. *: point of attachment. C18 diacid = O=C(O)CCCCCCCCCCCCCCCCC(=O)*; γGlu = O=C(O)[C@H](CCC(=O)[*:2])N[*:1]; AEEEA = NCCOCCOCCOCC(=O)O; Aib = CC(C)(N)C(=O)O

How the values were obtained:
[1] = Preliminary determination of pharmacokinetic properties in cynomolgus monkeys; assay type: in vivo; settings: cynomolgus monkey; male cynomolgus monkeys; subcutaneous (SC) 0.1 mg/kg; plasma, LC-MS
Protocol: The test animals were cynomolgus monkeys, two male cynomolgus monkeys in each compound group, and the drug was subcutaneously administered at 0.1 mg/kg. The blood was collected intravenously before (0 h) the administration, and 1 h, 2 h, 3 h, 4 h, 8 h, 12 h, 18 h, 24 h, 48 h, 96 h, 144 h, and 168 h after the administration of the compounds, and then centrifuged to isolate plasma samples.

GLP-1R = target: T1, GLP-1R (Homo sapiens, UniProt P43220); test: Determination of GLP-1 activity: cAMP chemiluminescence (RLU) in CHO-K1 cell line stably expressing GLP-1R; assay type: cell-based; settings: read-out: GLP-1 activity [EC50 (pmol)]
T1 construct: expressed in transfected cells; host or cells: CHO-K1
T1 sequence (P43220 24-463, species assumed): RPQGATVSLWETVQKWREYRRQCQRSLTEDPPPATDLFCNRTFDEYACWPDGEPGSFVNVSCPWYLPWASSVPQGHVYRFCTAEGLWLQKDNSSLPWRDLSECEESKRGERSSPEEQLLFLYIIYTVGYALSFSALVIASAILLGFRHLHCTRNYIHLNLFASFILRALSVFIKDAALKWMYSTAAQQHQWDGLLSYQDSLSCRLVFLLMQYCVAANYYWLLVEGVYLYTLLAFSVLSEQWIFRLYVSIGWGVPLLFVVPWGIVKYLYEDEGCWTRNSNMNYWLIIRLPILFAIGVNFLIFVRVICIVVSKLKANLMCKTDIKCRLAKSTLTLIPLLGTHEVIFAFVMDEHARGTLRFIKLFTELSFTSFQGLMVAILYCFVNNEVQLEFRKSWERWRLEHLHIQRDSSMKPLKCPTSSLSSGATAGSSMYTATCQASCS
Protocol: (§1) GLP-1R, under the stimulation of its specific agonist, can activate the intracellular adenylate cyclase pathway, and increase the level of cAMP, finally leading to the generation and release of insulin. The stimulation of the cell lines stably transfected with GLP-1R by the agonist to be tested can lead to rapid increase in the intracellular cAMP level, and the relative light units (RLUs) after stimulating the cells at each dose are determined by chemiluminescence method to calculate the EC50 of the agonist. This method for determining activity is commonly used for GLP-1 receptor agonist activity analysis at home and abroad.
CHO-K1 cell line stably expressing GLP-1R was stimulated with the agonist at different concentrations. The EC50 value of the agonist was calculated by determining the relative light units after stimulating the cells at each dose.

GLP-2R = target: T2, GLP-2R (Homo sapiens, UniProt O95838); test: Determination of GLP-2 activity: cAMP chemiluminescence (RLU) in CHO-K1 cell line stably expressing GLP-2R; assay type: cell-based; settings: read-out: GLP-2 activity [EC50 (nmol)]
T2 construct: expressed in transfected cells; host or cells: CHO-K1
T2 sequence (O95838 1-553): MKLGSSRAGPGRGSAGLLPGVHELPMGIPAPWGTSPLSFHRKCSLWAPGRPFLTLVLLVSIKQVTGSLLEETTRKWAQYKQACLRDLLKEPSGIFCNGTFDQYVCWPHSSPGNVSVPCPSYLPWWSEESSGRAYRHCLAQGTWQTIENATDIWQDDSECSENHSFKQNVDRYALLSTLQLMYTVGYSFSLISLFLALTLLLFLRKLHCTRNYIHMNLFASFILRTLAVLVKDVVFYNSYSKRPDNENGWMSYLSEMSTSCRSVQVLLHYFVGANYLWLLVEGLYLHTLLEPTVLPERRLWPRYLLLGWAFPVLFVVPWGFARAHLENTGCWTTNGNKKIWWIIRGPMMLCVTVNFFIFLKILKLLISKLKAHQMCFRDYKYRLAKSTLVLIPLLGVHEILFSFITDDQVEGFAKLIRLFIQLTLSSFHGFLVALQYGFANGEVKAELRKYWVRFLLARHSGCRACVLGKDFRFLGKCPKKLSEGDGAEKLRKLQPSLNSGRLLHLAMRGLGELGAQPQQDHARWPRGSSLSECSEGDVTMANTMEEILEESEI
Protocol: as §1, with “GLP-2R, under” for “GLP-1R, under”, “for GLP-2” for “for GLP-1”
CHO-K1 cell line stably expressing GLP-2R was stimulated with the agonist at different concentrations. The EC50 value of the agonist was calculated by determining the relative light units after stimulating the cells at each dose.

half-life [1]	EC50 (GLP-1R)	EC50 (GLP-2R)	SMILES
59.2 h	–	–	CC[C@H](C)[C@H](NC(=O)[C@H](Cc1ccccc1)NC(=O)[C@H](CC(=O)O)NC(=O)[C@H](CCCNC(=N)N)NC(=O)[C@H](C)NC(=O)[C@H](C)NC(=O)[C@H](CCC(N)=O)NC(=O)[C@H](CCCCNC(=O)COCCOCCOCCNC(=O)CC[C@H](NC(=O)CCCCCCCCCCCCCCCCC(=O)O)C(=O)O)NC(=O)[C@H](CC(=O)O)NC(=O)[C@H](CC(C)C)NC(=O)[C@@H](NC(=O)[C@@H](NC(=O)[C@H](C)NC(=O)[C@H](CC(C)C)NC(=O)[C@H](CCC(=O)O)NC(=O)[C@H](CO)NC(=O)[C@@H](NC(=O)[C@H](Cc1ccccc1)NC(=O)[C@H](CO)NC(=O)CNC(=O)[C@H](CCC(=O)O)NC(=O)C(C)(C)NC(=O)[C@@H](N)Cc1c[nH]cn1)[C@@H](C)O)[C@@H](C)O)[C@@H](C)CC)C(=O)N[C@@H](C)C(=O)N[C@@H](Cc1c[nH]c2ccccc12)C(=O)N[C@@H](CC(C)C)C(=O)N[C@H](C(=O)N[C@@H](CCC(N)=O)C(=O)N[C@@H](Cc1c[nH]cn1)C(=O)N[C@@H](CCCCN)C(=O)N[C@H](C(=O)N[C@H](C(=O)N[C@@H](CC(=O)O)C(N)=O)[C@@H](C)O)[C@@H](C)CC)[C@@H](C)CC [Compound 4, His-Aib-Glu-Gly-Ser-Phe-Thr-Ser-Glu-Leu-Ala-Thr-Ile-Leu-Asp-Lys(PEG3CH2CO-γGlu-octadecanedioic acid)-Gln-Ala-Ala-Arg-Asp-Phe-Ile-Ala-Trp-Leu-Ile-Gln-His-Lys-Ile-Thr-Asp-NH2] (H-H[Aib]EGSFTSELATILDK([AEEEA-γGlu-C18 diacid])QAARDFIAWLIQHKITD-NH2; N-terminus assumed)
–	0.0947 nM	6.04 nM	CC[C@H](C)[C@H](NC(=O)[C@H](Cc1ccccc1)NC(=O)[C@H](CC(=O)O)NC(=O)[C@H](CCCNC(=N)N)NC(=O)[C@H](C)NC(=O)[C@H](C)NC(=O)[C@H](CCC(N)=O)NC(=O)[C@H](CCCCNC(=O)CC[C@H](NC(=O)CCCCCCCCCCCCCCCCC(=O)O)C(=O)O)NC(=O)[C@H](CC(=O)O)NC(=O)[C@H](CC(C)C)NC(=O)[C@@H](NC(=O)[C@@H](NC(=O)[C@H](C)NC(=O)[C@H](CC(C)C)NC(=O)[C@H](CCC(=O)O)NC(=O)[C@H](CO)NC(=O)[C@@H](NC(=O)[C@H](Cc1ccccc1)NC(=O)[C@H](CO)NC(=O)CNC(=O)[C@H](CCC(=O)O)NC(=O)C(C)(C)NC(=O)[C@@H](N)Cc1c[nH]cn1)[C@@H](C)O)[C@@H](C)O)[C@@H](C)CC)C(=O)N[C@@H](C)C(=O)N[C@@H](Cc1c[nH]c2ccccc12)C(=O)N[C@@H](CC(C)C)C(=O)N[C@H](C(=O)N[C@@H](CCC(N)=O)C(=O)N[C@@H](Cc1c[nH]cn1)C(=O)N[C@@H](CCCCN)C(=O)N[C@H](C(=O)N[C@H](C(=O)N[C@@H](CC(=O)O)C(N)=O)[C@@H](C)O)[C@@H](C)CC)[C@@H](C)CC [Compound 1, His-Aib-Glu-Gly-Ser-Phe-Thr-Ser-Glu-Leu-Ala-Thr-Ile-Leu-Asp-Lys(γGlu-octadecanedioic acid-Gln-Ala-Ala-Arg-Asp-Phe-Ile-Ala-Trp-Leu-Ile-Gln-His-Lys-Ile-Thr-Asp-NH2] (H-H[Aib]EGSFTSELATILDK([γGlu-C18 diacid])QAARDFIAWLIQHKITD-NH2)
